The text below walks through data of US20220347309A1, “PYRROLOBENZODIAZEPINE RESISTANCE” (ADC THERAPEUTICS SA, priority 2018, published 2022).

In general, IC50 refers to the concentration at which inhibition is half-maximal.

The test system of assay [1] is Karpas PBDr cells (SG3199 acquired resistant Karpas-299). Description: MTS in vitro cytotoxicity, 96 h continuous exposure. The protocol:
(§1) To generate a resistant population to either ADCT-301 or SG3199, human anaplastic large cell lymphoma Karpas-299 cells (expressing CD25) were incubated with an approximate IC50 dose of the drug for 96 hours. The cells were then washed and returned to fresh medium until normal cell growth was recovered. This process was repeated until a measurable and stable loss in cytotoxic efficacy was established using the MTS assay.
(§2) To measure the in vitro cytotoxicity with the MTS assay, cells were incubated with a 10-fold dilution range of ADCT-301 or SG3199, and incubated with continuous exposure for 96 hours (at least three cell doubling times under normal cell culture conditions). After incubation the […] AQueous One Solution Cell Proliferation Assay (MTS) was used to measure growth inhibition, by adding 20 μl reagent to the cells and incubating for 3-4 hours, then reading the absorbance at 492 nm. Mean % growth of the ADC or PBD treated cells was calculated relative to an untreated control.
(§3) To measure the cross-resistance of the Karpas ADCR cells to the SG3199 PBD warhead, and the PBDR cells to ADCT-301, the in vitro cytotoxicity assay was carried out as described above, treating the cells with the opposite drug molecule to the one with which they were generated.
(§4) To measure the cross-resistance of the Karpas ADCR and PBDR cells to the PBD dimer warhead SG2000, the in vitro cytotoxicity (MTS) assay was carried out as previously described in Example 2.

The test system of assay [2] is Karpas ADCr cells (ADCT-301 acquired resistant Karpas-299). The description is as above. As for the experimental part: as §1, §2, §3, §4

Regarding `COc1cc2c(cc1OCCCCCOc1cc3c(cc1OC)C(=O)N1C=C(C)C[C@H]1C=N3)N=C[C@@H]1CC(C)=CN1C2=O` [SG3199], the “fold resistance compared to wildtype” value is 2.9 fold in assay [1] (Karpas PBDr vs Karpas wt IC50) and 4.4 fold in assay [2] (Karpas ADCr vs Karpas wt IC50). Also, the concentration for half-maximal inhibition (IC50) in assay [1] (read-out: IC50 pM, Karpas PBDr, 96 h continuous exposure, mean) came out at 205 pM; in assay [2] (read-out: IC50 pM, Karpas ADCr, 96 h continuous exposure, mean), 306 pM.
